Usually IC50 stands for the concentration that inhibits the measured activity by half. Low readings indicate inhibition by little substance, high ones a need for much substance.

For two compounds, IC50 results are on record in BindingDB's records for doi:10.1074/jbc.M501367200 (Berlex Biosciences, 2005).

This assay addresses T1, 3-phosphoinositide-dependent protein kinase 1 (Homo sapiens, UniProt O15530).
T1 sequence (O15530 whole entry): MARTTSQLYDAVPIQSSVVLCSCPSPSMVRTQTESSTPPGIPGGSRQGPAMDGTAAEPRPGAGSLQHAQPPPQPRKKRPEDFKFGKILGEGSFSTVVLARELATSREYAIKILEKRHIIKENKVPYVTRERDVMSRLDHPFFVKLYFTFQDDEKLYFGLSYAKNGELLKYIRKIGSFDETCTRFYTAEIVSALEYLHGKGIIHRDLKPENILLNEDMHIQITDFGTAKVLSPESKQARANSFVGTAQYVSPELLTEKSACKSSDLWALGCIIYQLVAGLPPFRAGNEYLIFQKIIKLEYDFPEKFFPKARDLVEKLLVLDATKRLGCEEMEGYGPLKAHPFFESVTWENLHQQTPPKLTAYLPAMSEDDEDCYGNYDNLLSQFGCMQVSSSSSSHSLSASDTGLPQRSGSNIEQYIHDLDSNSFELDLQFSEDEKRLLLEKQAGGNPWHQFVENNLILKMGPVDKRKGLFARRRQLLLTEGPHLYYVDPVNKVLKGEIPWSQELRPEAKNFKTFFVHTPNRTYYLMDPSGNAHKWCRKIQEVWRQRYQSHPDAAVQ
Nature of the assay: PDK1-mediated AKT2 Activation Assay (cAKT2 33P-SPA). To be noted: pH 7.2; 22 °C. On the procedure: The coupled assay can detect inhibitors of AKT2 activation, as well as direct inhibitors of PDK1 or AKT2. Inactive AKT2 is activated in situ by incubating with PDK1 and PtdIns-3, 4-P2 in the presence of compound, 33P-ATP, and a biotinylated peptide substrate for AKT2. The peptide is captured on streptavidin-coated SPA beads for detection.

In turn, `O=C(Nc1cccc(Nc2ncc(Br)c(NCCc3c[nH]cn3)n2)c1)N1CCCC1` [N-{3-[(5-bromo-4-{[2-(1H-imidazol-4-yl)ethyl]amino}pyrimidin-2-yl)amino]phenyl}pyrrolidine-1-carboxamide] showed an IC50 of 12 nM.
Turning to `O=C(NCCCNc1nc(Nc2cccc(NC(=O)N3CCCC3)c2)ncc1I)c1cccs1` [N-{3-[(5-iodo-4-{[3-(thiophen-2-ylformamido)propyl]amino}pyrimidin-2-yl)amino]phenyl}pyrrolidine-1-carboxamide], the IC50 is 6 nM. This IC50 lies about 2-fold lower than the previous one.
